Assay results as given in US20260041693A1, “COMBINATION THERAPY OF CDK7 INHIBITORS WITH OTHER ANTI-CANCER THERAPIES” (QURIENT CO., LTD., priority 2022, published 2026).
Each block holds one compound with its values, some of them ahead of it.

Columns and labels:
[1] = tested on: RENCA cells; test: Cell viability assay (CellTiter-Glo); assay type: cell-based; settings: Mus musculus, 72 hours, read-out: IC50 of RENCA cell growth/viability
Method: RENCA renal adenocarcinoma were treated with various concentrations of compound 47 for 72 hours. Cell viability was measured using the CellTiter-Glo assay system (Promega). Luminescence units were normalized to those of untreated cells and are presented as the percentage of cell viability. IC50 was calculated using the dose-response curve generated by GraphPad Prism.

[2] = target: T1, CDK7 (Mus musculus, UniProt Q03147); test: Target occupancy assay (Bio-compound 3 pull-down, anti-CDK7 blot); assay type: cell-based; settings: RENCA cells treated 4 hours; lysate incubated with 1 μM Bio-compound 3
T1 construct: endogenous in cells; host or cells: RENCA cells
T1 sequence (Q03147 2-346 limits assumed): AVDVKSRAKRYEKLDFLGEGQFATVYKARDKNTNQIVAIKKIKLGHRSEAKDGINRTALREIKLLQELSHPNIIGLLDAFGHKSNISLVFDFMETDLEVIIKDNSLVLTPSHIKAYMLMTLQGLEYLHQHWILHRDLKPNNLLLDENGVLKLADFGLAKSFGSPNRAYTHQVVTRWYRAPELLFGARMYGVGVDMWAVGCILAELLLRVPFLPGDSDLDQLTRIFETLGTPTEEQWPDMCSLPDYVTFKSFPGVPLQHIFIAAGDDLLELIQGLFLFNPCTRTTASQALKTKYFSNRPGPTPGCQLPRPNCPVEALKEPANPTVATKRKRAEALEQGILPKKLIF
T1 sequence (Q61458 1-323 partner): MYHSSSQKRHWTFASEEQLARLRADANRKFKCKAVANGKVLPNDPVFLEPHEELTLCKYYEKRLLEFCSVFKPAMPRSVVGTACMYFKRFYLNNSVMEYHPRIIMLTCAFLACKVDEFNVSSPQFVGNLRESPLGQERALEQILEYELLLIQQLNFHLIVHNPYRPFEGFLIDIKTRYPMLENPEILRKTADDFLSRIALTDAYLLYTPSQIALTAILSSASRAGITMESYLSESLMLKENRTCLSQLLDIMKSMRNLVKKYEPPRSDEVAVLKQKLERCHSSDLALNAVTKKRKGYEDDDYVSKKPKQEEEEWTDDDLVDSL
T1 sequence (P51949 1-309 partner): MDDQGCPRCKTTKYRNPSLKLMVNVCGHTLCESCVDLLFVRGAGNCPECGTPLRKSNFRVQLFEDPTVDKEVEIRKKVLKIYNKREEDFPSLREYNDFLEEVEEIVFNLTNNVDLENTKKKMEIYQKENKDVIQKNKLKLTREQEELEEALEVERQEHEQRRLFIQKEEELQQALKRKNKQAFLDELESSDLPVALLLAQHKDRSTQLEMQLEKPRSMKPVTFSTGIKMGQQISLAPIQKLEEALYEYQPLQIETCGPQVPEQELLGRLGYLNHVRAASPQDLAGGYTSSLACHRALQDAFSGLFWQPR
Method: RENCA cells were treated with various concentrations of compound 47 for 4 hours. Cells were washed with ice-cold PBS twice and then lysed with ice-cold lysis buffer (0.025M Tris, 0.15M NaCl, 0.001M EDTA, 1% NP-40, 5% glycerol, pH 7.4) with protease and phosphatase cocktails (Sigma-Aldrich). Lysed cells were centrifuged at 12,000 rpm at 4′C for 10 minutes and then the supernatant was collected. Protein concentrations were determined using a BCA protein quantification kit (Thermo Fisher Scientific, #23227). Equal amounts of protein were incubated with 1 μM of biotinylated compound 3 (Bio-compound 3; biotinylated analog of compound 47) at 4′C overnight and then immunoprecipitated with streptavidin-agarose bead. Pull-downed proteins were eluted, loaded to SDS-PAGE, transferred to a PVDF membrane (MilliporeSigma), and then treated with anti-CDK7 antibody. CDK7 protein was detected by HRP-conjugated secondary antibody. The image was obtained by ImageQuant™ LAS4000.

[3] = tested on: phosphorylated form of H2AX (Ser139) in RENCA cells; test: Western blot analysis of phosphorylated H2AX; assay type: cell-based, mouse; settings: 48 hours
Method: RENCA cells were treated with various concentrations of compound 47 in 5% CO2 at 37′C for 48 hours. Cells were washed with ice-cold PBS twice and lysis buffer was added. Cells were collected and kept on the ice for 30 min. Lysed cells were centrifuged at 12,000 rpm at 4′C for 10 minutes, and then the supernatant was collected. Protein concentrations were quantified using a BCA protein Quantification kit. Equal amounts of protein were fractionated by SDS-PAGE, transferred to a PVDF membrane, and then treated with anti-phospho-H2AX (Ser139) antibody. The phosphorylated form of H2AX protein was detected by HRP-conjugated secondary antibody and the signal was obtained with Super Signal Western blot enhancer. The image was acquired by ImageQuant™ LAS 4000.

[4] = tested on: RENCA tumor; test: RENCA syngeneic renal tumor mouse model; assay type: in vivo, BALB/c mice; settings: compound 47 10 mg/kg i.p. every day; anti-PD-1 antibody 10 mg/kg i.p. twice a week; alone or both
Method: RENCA cells (1×10^5) were subcutaneously implanted in the right flank of BALB/c mice. Tumor-bearing mice were randomized and then treated with compound 47 (10 mg/kg, intraperitoneally every day), anti-PD-1 antibody (10 mg/kg, intraperitoneally twice a week, clone: RMP1-14, Bio X Cell), or both compound 47 and anti-PD-1 antibody when the average tumor volume reached 31 mm^3 (N=7 or 8 per group). Control mice were treated with vehicle and rat IgG2a isotype control antibody (clone: 2A3, Bio X Cell). Tumor volume and body weight were measured twice per week.

[5] = tested on: OVCAR3 tumor; test: OVCAR3 high-grade serous ovarian cancer cell line-derived xenograft model; assay type: in vivo, BALB/c nude mice; settings: compound 47 3 mg/kg i.p. every day; olaparib 100 mg/kg orally every day; alone or both
Method: (§1) OVCAR3 cells (1×10^7) mixed with matrigel (50:50) were subcutaneously implanted in the right flank of female BALB/c nude mice. Tumor-bearing mice were randomized and treated with compound 47 (3 mg/kg, intraperitoneally every day), olaparib (100 mg/kg, orally every day), or both compound 47 and olaparib when the average tumor volume reached 173 mm^3 (N=8 per group). Tumor volume and body weight were measured twice per week.

[6] = tested on: DU145 tumor; test: DU145 castration-resistant prostate cancer cell line-derived xenograft model; assay type: in vivo, BALB/c nude mice; settings: compound 47 3 mg/kg i.p. every day; docetaxel 15 mg/kg i.p. once a week; alone or both
Method: DU145 cells (1×10^7) mixed with matrigel (50:50) were subcutaneously implanted in the right flank of male BALB/c nude mice. Tumor-bearing mice were randomized and then treated with compound 47 (3 mg/kg, intraperitoneally every day), docetaxel (15 mg/kg, intraperitoneally once a week), or both compound 47 and docetaxel when the average tumor volume reached 154 mm^3 (N=8 per group). Tumor volume and body weight were measured twice per week.

[7] = tested on: MCF7 tumor; test: MCF7 human breast adenocarcinoma xenograft model; assay type: in vivo, BALB/c nude mice; settings: compound 47 3 mg/kg i.p. every day; fulvestrant 2.5 mg/dose s.c. every day; alone or both
Method: as §1, with “MCF7” for “OVCAR3”, “fulvestrant (2.5 mg/dose, subcutaneously” for “olaparib (100 mg/kg, orally”, “fulvestrant” for “olaparib”, “117” for “173”, “week. […] On day 28, tumor volume of the compound 47 with fulvestrant combination group was reduced compared to the compound 47 alone group or the fulvestrant treatment group.” for “week.”

[8] = tested on: g-H2AX foci in OVCAR3 cells; test: g-H2AX foci imaging in OVCAR3 cells after cisplatin; assay type: cell-based, human; settings: 100 nM cisplatin 24 hours, wash, then Compound 47, 24, 48 and 72 hours
Method: OVCAR3 cells were treated with DMSO or 100 nM of cisplatin for 24 hours. Cells were then washed with culture media and treated with Compound 47 at various concentrations. Cells were collected 24, 48 and 72 hours after cisplatin wash and then stained with 4′,6-diamidino-2-phenylindole (DAPI) and anti-phospho-histone H2AX ([…]). g-H2AX foci inside the nucleus were identified by Alexa-568 staining. Fluorescence images of g-H2AX foci were captured using a confocal imaging system, CQ1 (×40 objective).

[9] = tested on: g-H2AX or 53BP1 foci in PC3 cells; test: g-H2AX / 53BP1 foci imaging in PC3 cells after X-ray irradiation; assay type: cell-based, human; settings: Compound 47 1 hour then X-ray 8, 4 or 2 Gy, 24 hours after irradiation
Method: PC3 cells were treated with DMSO or various concentrations of Compound 47 for 1 hour. Cells were then irradiated with X-ray at set of 225 KV, 17.7 mA for 5 min using a Faxitron Specimen Radiography System (8 Gy, 4 Gy and 2 Gy irradiation, FIGS. 7A-7C, and 7D-7F, respectively). Cells were collected at 1-, 4-, 6-, 24- and 48-hour post X-ray irradiation and stained with HOECHST and anti-phospho-histone H2AX ([…]) or 53BP1. g-H2AX or 53BP1 foci inside the nucleus were identified with Alexa Flour488. Fluorescence images of the foci were obtained using Opera Phenix 3 High-content screening system (×40 objective) and the average granule number f SD of g-H2AX (FIG. 7A to 7C) or of 53BP1 (FIG. 7D to 7F) per cell was determined using MetaXpress software.

- CDK7 occupancy [2]: in a dose dependent manner
SMILES: C=C(F)C(=O)Nc1ccc2c(-c3ccccc3CNc3nc(NC[C@H]4CCNC[C@@H]4O)nc4c(C(C)C)cnn34)nccc2c1 [Compound 47]
- IC50 [1]: 0.02 µM
- phosphorylation of H2AX at Serine-139 [3]: induced phosphorylation of H2AX at the Serine-139 residue in a dose dependent manner
- tumor growth inhibition (TGI) [4]: 50.2%
- TGI [5]: 36%
- TGI [6]: 61%
- TGI [7]: 81%
- percentage of g-H2AX-positive cells (g-H2AX foci) [8]: increased the percentage of g-H2AX foci in a time- and dose-dependent manner
- DNA damage sustaining effect (granule number of g-H2AX or 53BP1 per cell) [9]: significant DNA damage sustaining effects

SMILES: CC(=O)O[C@@]12CO[C@@H]1C[C@H](O)[C@@]1(C)C(=O)[C@H](O)C3=C(C)[C@@H](OC(=O)[C@H](O)[C@@H](NC(=O)OC(C)(C)C)c4ccccc4)C[C@@](O)([C@@H](OC(=O)c4ccccc4)[C@H]21)C3(C)C [docetaxel, reference compound]
- TGI [6]: 25%

SMILES: C[C@]12CC[C@@H]3c4ccc(O)cc4C[C@@H](CCCCCCCCC[S+]([O-])CCCC(F)(F)C(F)(F)F)[C@H]3[C@@H]1CC[C@@H]2O (stereo partly drawn) [fulvestrant, reference compound]
- TGI [7]: 81%

SMILES: O=C(c1cc(Cc2n[nH]c(=O)c3ccccc23)ccc1F)N1CCN(C(=O)C2CC2)CC1 [olaparib, reference compound]
- TGI [5]: 38%
